Data from ChEMBL document CHEMBL1133140, “Computer-aided design, synthesis and biological assay of p-methylsulfonamido phenylethylamine analogues” (2000).
Activity calls are given as the source filed them. The calls are words filed in the database; no cut-off is given here.

Legend:
[1] = Negative log of concentration (-logC)for delaying functional refractory period 10 ms in animal atrium; parameters: species or system Cardiac atrium
[2] = Tested for its effective concentration for delaying functional refractory period 10 ms in animal atrium; parameters: species or system Cardiac atrium
[3] = Tested for its maximal percent change of delaying functional refractory period in uM
[4] = Tested for its maximal percent change of heart rate in uM; type: functional
[5] = Tested for its maximal percent change of force of constriction in uM; type: functional
[6] = The compound was tested for its maximal percent change of delaying functional refractory period in uM; no effect
[7] = The compound was tested for its maximal percent change of force of constriction in uM; no effect; type: functional

Row | Compound | EA [1] | Effective concentration [2] | Max delta FRP [3] | Max delta HR [4] | Max delta FC [5] | Max delta FRP [6] | Max delta FC [7]
1 | CN(CCc1ccc(NS(C)(=O)=O)cc1)Cc1ccc(Cl)cc1 | 5.65 | 2.239 µM |  |  |  |  | 
2 | CS(=O)(=O)Nc1ccc(CCN(CCOc2ccccc2)C(=O)c2ccccc2)cc1 |  |  | 5.33% | -20% | 33.3% |  | 
3 | CC(=O)N(CCOc1ccccc1)CCc1ccc(N(S(C)(=O)=O)S(C)(=O)=O)cc1 |  |  |  | -20.51% |  | inactive | inactive
4 | CN(CCc1ccc(NS(C)(=O)=O)cc1)Cc1ccccc1 | 6.34 | 0.372 µM |  |  |  |  | 
5 | CN(CCc1ccc(NS(C)(=O)=O)cc1)C1CCCCC1 | 5.32 | 4.789 µM |  |  |  |  | 
6 | CS(=O)(=O)N(c1ccc(CCN(CCOc2ccccc2)Cc2ccccc2)cc1)S(C)(=O)=O |  |  |  | -17.86% | 25% | inactive | 
7 | COc1ccccc1CN(CCc1ccc(NS(C)(=O)=O)cc1)Cc1ccccc1 | 6.85 | 0.141 µM |  |  |  |  | 
8 | COc1ccc(CN(CCc2ccc(N(S(C)(=O)=O)S(C)(=O)=O)cc2)Cc2ccccc2)cc1 | 6.1 | 0.79 µM |  |  |  |  | 
9 | CS(=O)(=O)Nc1ccc(CCNCCOc2ccc(NS(C)(=O)=O)cc2)cc1 [N-DESMETHYLDOFETILIDE] | 7.63 | 0.023 µM |  |  |  |  | 
10 | Cc1ccc(CN(C)CCc2ccc(N(S(C)(=O)=O)S(C)(=O)=O)cc2)cc1 | 6.02 | 0.953 µM |  |  |  |  | 
11 | CN(CCOc1ccc(NS(C)(=O)=O)cc1)CCc1ccc(NS(C)(=O)=O)cc1 [DOFETILIDE] | 7.92 | 0.012 µM | 24% | -30.03% | 17.1% |  | 
12 | CN(CCOc1ccccc1)CCc1ccc(NS(C)(=O)=O)cc1 |  |  | 20.2% | -28.51% | 20.2% |  | 
13 | Cc1ccc(CN(CCc2ccc(N(S(C)(=O)=O)S(C)(=O)=O)cc2)Cc2ccccc2)cc1 | 6.21 | 0.62 µM |  |  |  |  | 
14 | CC(=O)N(CCOc1ccc(NS(C)(=O)=O)cc1)CCc1ccc(NS(C)(=O)=O)cc1 | 7.67 | 0.021 µM |  |  |  |  | 
15 | CS(=O)(=O)Nc1ccc(CCN(CCOc2ccccc2)Cc2ccccc2)cc1 |  |  |  | -31.8% | 25% | inactive | 
16 | CS(=O)(=O)Nc1ccc(CCN(CCOc2ccc(NS(C)(=O)=O)cc2)Cc2ccc(Cl)cc2)cc1 | 7.44 | 0.037 µM |  |  |  |  | 
17 | COc1ccc(CN(C)CCc2ccc(N(S(C)(=O)=O)S(C)(=O)=O)cc2)cc1 | 5.93 | 1.17 µM |  |  |  |  | 
18 | CN(CCc1ccc(NS(C)(=O)=O)cc1)Cc1ccc2c(c1)OCO2 | 6.15 | 0.89 µM |  |  |  |  | 
19 | CS(=O)(=O)Nc1ccc(CCN(CCOc2ccc(NS(C)(=O)=O)cc2)Cc2ccccc2)cc1 | 7.8 | 0.016 µM |  |  |  |  | 
20 | CC(=O)N(CCOc1ccccc1)CCc1ccc(NS(C)(=O)=O)cc1 |  |  | 58.4% | -46.17% | -37.9% |  | 
21 | CS(=O)(=O)N(c1ccc(CCN(Cc2ccccc2)Cc2ccc3c(c2)OCO3)cc1)S(C)(=O)=O | 6.41 | 0.38 µM |  |  |  |  | 
22 | C=CCN(CCOc1ccccc1)CCc1ccc(NS(C)(=O)=O)cc1 |  |  | 9.77% | -15.18% | 16.7% |  | 
23 | C=CCN(CCOc1ccccc1)CCc1ccc(N(S(C)(=O)=O)S(C)(=O)=O)cc1 |  |  |  | -8.33% | 16.7% | inactive | 
24 | CN(CCOc1ccccc1)CCc1ccc(N(S(C)(=O)=O)S(C)(=O)=O)cc1 |  |  | 12% | -20.69% |  |  | inactive
25 | CS(=O)(=O)Nc1ccc(CCN(Cc2ccccc2)Cc2ccc(Cl)cc2)cc1 | 5.98 | 1.05 µM |  |  |  |  | 
26 | CS(=O)(=O)Nc1ccc(CCN(Cc2ccccc2)Cc2ccccc2)cc1 | 6.57 | 0.27 µM |  |  |  |  | 
